# Data taken from PubChem BioAssay AID179 (DTP/NCI, 2004).
# Where “and” joins values, the source holds several entries; their conditions need not be identical. Identical values can stand only once. Calls of active or inactive are those of the source.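 Rule for the calls: active = compounds giving half or more protection of infected cells from virus-caused growth loss, again on retest; inactive = the rest.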 *1 amine or outer side, *2 acyl side, *3 side chain or, on linkers, in order; H or OH if unused. Where a SMILES comes first, the peptide text is derived from it. [ ]: non-standard residue; d: D form. The star is where a group is joined. X3 = CC(=O)N(C)SCC(N[*:1])C(=O)[*:2]; Fmoc = O=C(OCC1c2ccccc2-c2ccccc21)*; For = O=C*
# System: CEM cells HIV-1 protection, formazan growth assay
# Assay: NCI AIDS Antiviral Assay
# Conditions: for IC50: measured here: growth of uninfected CEM cells
# Method in brief: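 Screen of anti-HIV-1 activity in human CEM cells using a formazan-based growth measurement at five drug concentrations. Hits with 50% or greater protection were repeated, and confirmation required reproducible complete protection.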
Compound,outcome,EC50,IC50 [µM]
CCOc1cccc2sc(N)nc12,inactive,–,–
NC(CC(=O)O)C(=O)NC1Cc2ccccc2C1=O (stereo not given),–,> 200 µM,97.7
Cc1ccc(S(=O)(=O)N/N=C(\c2nc3ccc(Cl)cc3[nH]c2=O)C(O)c2ccco2)cc1 (stereo not given),–,> 275 µM,17
CC(=O)N(C)SCC(NC(=O)C(Cc1ccccc1)NC(=O)OCC1c2ccccc2-c2ccccc21)C(=O)NC(Cc1ccccc1)C(=O)NC(Cc1cn(C=O)c2ccccc12)C(=O)NC(CCCCNC(=O)OCC1c2ccccc2-c2ccccc21)C(=O)NC(C(=O)NC(CSN(C)C(C)=O)C(=O)NC(C(N)=O)C(C)O)C(C)O (stereo not given) (Fmoc-F[X3]FW(For)K(Fmoc)T[X3]T-NH2; configuration not given here),–,> 100 µM,79.4
CN(C)c1c([O-])c(=[N+](C)C)c1=O,inactive,–,–
NS(=O)(=O)c1ccc(C(=O)O)cc1,–,> 200 µM,> 200
COc1ccc2c(c1)OCC1=C2Oc2ccccc2C1,–,> 200 µM,26.9
Clc1ccc(-n2cnn3c(-c4ccccc4)ncc23)cc1,–,> 100 µM,> 100
CC1(C)CC(O)C(C)(C)[C@@H](O)C1 (stereo not given in full),inactive,–,–
Cc1cc(Cl)ccc1C1OC(=O)c2c1ccc1ccccc21 (stereo not given),–,> 23.4 µM,> 23.4
CNc1cc(C)ccc1S(=O)(=O)c1ccccc1[N+](=O)[O-],–,0.219 µM,30.2
CN1CCc2ccccc2C(C(=O)c2ccc(Cl)cc2)C1=O (stereo not given),–,> 83.2 µM,> 83.2
C[C@H]1NC(=O)C2CCCCN2C(=O)CN(C)C(=O)CNC(=O)C2CCCCN2C(=O)[C@@H](NC(=O)c2nc3ccccc3cc2O)[C@@H](C)NC(=O)C2CCCCN2C(=O)CN(C)C(=O)CNC(=O)[C@@H]2CCCCN2C(=O)C1NC(=O)c1nc2ccccc2cc1O (stereo not given in full),–,> 10.5 µM,0.0427
Cc1cc(Cc2cc(C)cc(S(=O)(=O)O)c2O)c(O)c(S(=O)(=O)O)c1,–,209 µM,646
CC1ON2CCCC2[C@H]1C(=O)N1C2CC3CCC2(CS1(=O)=O)C3(C)C (stereo not given in full),–,> 200 µM,> 200
O=C(OCc1ccccc1)N1CC[C@@H](O)[C@H]1CO,–,> 200 µM,> 200
CC(=O)Nc1cc(Cl)cc2[nH]c(C)nc12,–,> 955 µM,676
Nc1ccc2c(c1)Oc1c(F)c(F)cc3c(=O)c(C(=O)O)cn-2c13,–,> 11.5 µM,11.2
O=C(c1ccccc1)N1C(=S)N=C(Nc2ccccc2)C1=Nc1ccccc1,–,> 200 µM,> 200
C/C(=N\Nc1ccccc1Br)c1cccc(/C(C)=N/Nc2ccccc2Br)n1,–,> 100 µM,85.1
Cc1csc(=S)n1OC(=O)NC1CCCCC1,–,> 912 µM,45.7

Compound,outcome,EC50,IC50 [µM]
CCCCCCc1cc(C(=O)Nc2cccc(C(F)(F)F)c2)nc(N)n1,inactive,–,–
N.N.N.N.N.NC(=O)[O-].[Co+3].[I-],inactive,–,–
Nc1cc(C(=O)O)ccc1SSc1ccc(C(=O)O)cc1N,–,93.3 µM,> 200
COC(=O)C1=C(O)C(C(=O)OC)[C@]2(O)[C@@H](C(=O)OC)[C@H]1C[C@@H](c1ccccc1)[C@@H]2C(=O)OC (stereo not given in full),–,> 200 µM,18.6
NC1=C(c2nc(-c3cc4ccccc4oc3=O)cs2)C(c2ccco2)c2c(c3ccccc3oc2=O)O1 (stereo not given),–,> 100 µM,> 100
COc1ccc(/C=C/c2ccnc3ccccc23)cc1,–,0.0631 µM,14.1
CCN(CC)CCNc1ccc(CO)c2sc3ccccc3c(=O)c12,inactive,–,2690
c1cncc(CN2CCCCC2)c1,inactive,–,–
COC(=O)C1CC(Sc2ccccc2)C(=O)C(C(=O)OC)C1 (stereo not given),–,> 112 µM,77.6
CCOC(=O)Cn1c(C)nc2nn(Cc3ccccc3)cc2c1=O,–,> 200 µM,> 200
C[C@]12CCC3=NCCCN3C1=CC[C@@H]1[C@@H]2CC[C@@]2(C)[C@H]1CC[C@]2(C)O,–,> 47.9 µM,> 47.9
O=C1CC(c2ccc(O)cc2)C2(O1)C(=O)OC1C(O)COC12O (stereo not given),inactive,–,–
O=C1c2c(O)cccc2C(C(=O)CCCC(=O)C2c3cccc(O)c3C(=O)c3c(O)cccc32)c2cccc(O)c21,–,> 4.79 µM,0.794
CC(C)CC(NC(=O)C(CCC(=O)O)NC(=O)CNC(=O)CNC(=O)C(CO)NC(=O)C(CC(C)C)NC(=O)C(NC(=O)C(CO)NC(=O)C(C)NC(=O)C(CCCNC(=N)N)NC(=O)C(C)NC(=O)CN)C(C)C)C(=O)NC(CC(=O)O)C(=O)NC(CCCNC(=N)N)C(=O)NC(Cc1c[nH]c2ccccc12)C(=O)NC(Cc1ccc(O)cc1)C(N)=O (stereo not given) (H-GARASVLSGGELDRWY-NH2; configuration not given here),–,> 145 µM,> 145
Cc1ccc2nc3c(Cl)cc(=O)cc-3sc2c1,–,> 7.59 µM,3.89
COc1ccc(/C=C2/NC(=S)N=C2Cl)cc1,–,> 200 µM,> 200
COC1=CC(=O)c2nc(COC(C)=O)ccc2C1=O,inactive,–,–
Cc1ccc(SCC(O)=C2C(=O)CCCC2=O)cc1,–,> 245 µM,158
COc1cc(C2C=C(c3ccccc3)Oc3cc4c(cc32)OCO4)cc(OC)c1OC (stereo not given),–,> 2 µM,0.631
O=C(Nc1ccc(Cl)cc1)OCC12COCN1COC2,–,204 µM,257
CC(=O)C1(C)CC(C#N)(C#N)C(C#N)=C1N (stereo not given),–,> 200 µM,> 200

Compound,outcome,EC50,IC50 [µM]
CCOC(=O)/C(=C/c1ccc(C(=O)OC)cc1)N(CC)CC,–,> 427 µM,67.6
COc1nc2sc3c(c2c(=O)n1CCCSSCCCn1c(OC)nc2sc4c(c2c1=O)CCCC4)CCCC3,–,> 100 µM,> 100
C[P+](Cc1ccccc1)(c1ccccc1)c1ccccc1,–,0.0631 µM,14.5
COc1cc2cc3c(c(-c4ccc5c(c4)OCO5)c2c(OC)c1OC)COC3=O,–,> 34.7 µM,17.8
N#Cc1c(O)c(/C=N/c2ncccn2)c(=O)n2c1[nH]c1ccccc12,–,> 200 µM,> 200
CSCCC(N)C(=O)NCCNc1ccc(NCCNC(=O)C(N)CCSC)c2c1C(=O)c1ccccc1C2=O (stereo not given),–,> 151 µM,0.219
CCCCCCCCCCCCCCCCOCC(CCl)OP(=O)(O)OP(=O)(O)OCC1OC(n2ccc(N)nc2=O)C(O)C1O (stereo not given),–,> 200 µM,170
CCOC(=O)[C@@]1(C)CC(O)C(=O)N1C (stereo not given in full),inactive,–,–
CCOC(=O)C(NC(C)=O)[CH](c1ccc(OC)cc1)[Sn]([c]1ccccc1)([c]1ccccc1)[c]1ccccc1 (stereo not given),–,> 200 µM,1.07
Cn1c(=O)c2c(nc3n(Cc4ccccc4)c(=O)c(Br)cn23)n(C)c1=O,–,> 100 µM,38.9
FC(F)(F)c1nc(Cl)c2ncsc2n1,–,> 200 µM,2.4
O=C(CCc1n[nH]c(=S)o1)Nc1cc(Cl)c(Cl)cc1Cl,inactive,–,–
O=C(O)c1cccc(OCCOc2cccc(C(=O)O)c2[N+](=O)[O-])c1[N+](=O)[O-],–,> 200 µM,> 200
COc1ccc2nc3cc(Cl)ccc3c(NCCNCCCNC(=O)c3cc(-c4ccccc4)nc4ccccc34)c2c1,–,> 20 µM,1.12
CC1CC/C(=C\c2ccc(Cl)cc2)C(=O)/C1=C\c1ccc(Cl)cc1 (stereo not given),–,> 200 µM,42.7
CCC1=C(c2ccc(OC)cc2)CCC2(CCNC2)C1C (stereo not given),–,> 513 µM,10.5
C[N+]1(CC(=O)c2ccc(O)c(O)c2)CCOCC1,–,> 200 µM,> 200
CN(C)c1nc(N(C)C)nc(N2C(=O)c3ccccc3C2=O)n1,–,> 100 µM,0.389
COc1ccc(OC)c(/C=C/c2ccc3ccccc3n2)c1,–,> 24.5 µM,> 24.5
COc1cc2c(cc1OC)NCc1ccccc1NCc1cc(OC)c(OC)cc1NCc1ccccc1NC2,–,> 200 µM,107
COC(=O)c1c(C)cc(OC(=O)c2c(C)cc(O)c(C=O)c2O)c(C)c1O,–,> 151 µM,20.4

Compound,outcome,EC50,IC50 [µM]
O=C(CCc1ccccc1)On1nnc2ccccc2c1=O,inactive,–,–
Cc1ccc(S(=O)(=O)OC2C3CCC4C(COC42)C3)cc1 (stereo not given),–,79.4 µM and 77.6 µM,> 200
COc1ccc(C(C#N)NCCCCCCNC(C#N)c2ccc(OC)cc2)cc1 (stereo not given),–,> 200 µM,> 200
Nc1ccc2cc(S(=O)(=O)O)cc(O)c2c1N=Nc1ccc(NC(=O)Nc2ccc(N=Nc3c(N)ccc4cc(S(=O)(=O)O)cc(O)c34)c(S(=O)(=O)O)c2)cc1S(=O)(=O)O,–,55 µM,> 200
Cn1c(=O)nc2n(-c3ccc(O)cc3)c3ccccc3nc-2c1=O,inactive,–,–
O=c1c2cc(S(=O)(=O)Nc3ccccc3Cl)ccc2ncn1NS(=O)(=O)c1ccc(Br)cc1,inactive,–,–
C(=Nc1ccc(C2=NCCN2)cc1)c1ccc(C=Nc2ccc(C3=NCCN3)cc2)cc1,–,> 200 µM,11.7
CCOC(=O)N1CC2(C)C=CC1C(C(=O)OC)C2 (stereo not given),–,> 200 µM,> 200
O=NN1CCCS1(=O)=O,–,> 200 µM,> 200
C1CC2N=C3OCCC3N=C2O1 (stereo not given),–,> 1510 µM,> 1510
CN(C)c1ccc(/C=C(\NC(=O)c2ccccc2)c2nc3ccccc3c(=O)o2)cc1,–,> 100 µM,> 100
O=P1(Oc2ccccc2)Nc2cc(Cl)ccc2S1 (stereo not given),–,> 45.7 µM,22.4
CC(=O)C(C)(C)CCC(C)(C)C(C)=O,inactive,–,–
COc1cc(OC)c(C2(c3c(OC(C)C)c(=O)c3=O)SCCCS2)cc1OC,–,> 200 µM,170
CC1=C(C(=O)N[C@@H](CC(C)C)C(=O)O)N2C(=O)[C@@H](NC(=O)C(N)c3ccccc3)[C@H]2SC1 (stereo not given in full),–,117 µM,> 200
CC(=O)NC(CCCNCc1ccccc1)C(=O)NCc1ccccc1 (stereo not given),–,> 708 µM,> 708
COc1ccc2nc3c([N+](=O)[O-])ccc4c3c(c2c1)NCCN4CCN(C)C,–,> 200 µM,1.05
NC(=O)CC(NC(=O)OCc1ccccc1)C(=O)NC(Cc1ccccc1)C(=O)NC(Cc1ccccc1)NC(=O)C(Cc1c[nH]c2ccccc12)C(=O)O (stereo not given),–,> 50.1 µM,> 50.1
CC1CCCC(C(O)CC2CC(=O)NC(=O)C2)C1O (stereo not given),–,> 200 µM,> 200
